Measured values taken from BindingDB's records for doi:10.1021/jm00046a011 (Glaxo Research and Development, 1994).

Target: Squalene synthase (Candida albicans)
Assay: Compound was tested for in vitro inhibitory activity against Candida albicans 2005E microsomal SQS

| Compound | IC50 [nM] |
| --- | --- |
| CC[C@H](C)C[C@H](C)CCC(=O)O[C@@H]1[C@@H](O)[C@@]2(CCC(C)[C@H](OC(C)=O)[C@@H](C)Cc3ccccc3)O[C@H](C(=O)O)[C@@](O)(C(=O)O)[C@]1(C(=O)O)O2 (stereo partly drawn) [(1S,3S,4S,5R,6R,7R)-1-((4S,5S)-4-Acetoxy-3,5-dimethyl-6-phenyl-hexyl)-6-((4R,6S)-4,6-dimethyl-octanoyloxy)-4,7-dihydroxy-2,8-dioxa-bicyclo[3.2.1]octane-3,4,5-tricarboxylic acid] | 7 |
| CC(CC[C@]12O[C@H](C(=O)O)[C@@](O)(C(=O)O)[C@](C(=O)O)(O1)[C@H](O)[C@H]2O)C[C@@H](C)Cc1ccccc1 (stereo partly drawn) [(1S,3S,4S,5R,6R,7R)-1-((R)-3,5-Dimethyl-6-phenyl-hexyl)-4,6,7-trihydroxy-2,8-dioxa-bicyclo[3.2.1]octane-3,4,5-tricarboxylic acid] | 200 |
